Measured values from the CheMixHub viscosity set.

Experiment: xn = mol fraction of the nth substance listed

CCCCCCCCCCCCCC + CCCCCCC
101 kPa, x2 = 0.5
Settings | viscosity [mPa·s]
298 K | 1.031
318 K | 0.7754

ClC(Cl)=C(Cl)Cl + CCCCCCC
303.15 K, 101 kPa
Settings | viscosity [mPa·s]
x1 = 0.196 | 0.442
x1 = 0.3642 | 0.497
x1 = 0.4421 | 0.529
x1 = 0.4713 | 0.543
x1 = 0.5272 | 0.568
x1 = 0.6106 | 0.61
x1 = 0.6939 | 0.653
x1 = 0.7237 | 0.668
x1 = 0.8091 | 0.714
x1 = 0.9254 | 0.775

O=[N+]([O-])c1ccccc1 + CCCCCCC
101.3 kPa
Settings | viscosity [mPa·s]
293.15 K, x1 = 0.149 | 0.482
293.15 K, x1 = 0.2214 | 0.532
293.15 K, x1 = 0.2746 | 0.58
293.15 K, x1 = 0.3291 | 0.631
293.15 K, x1 = 0.4214 | 0.759
293.15 K, x1 = 0.4477 | 0.805
293.15 K, x1 = 0.4729 | 0.845
293.15 K, x1 = 0.4886 | 0.862
293.15 K, x1 = 0.5628 | 0.937
293.15 K, x1 = 0.6392 | 1.016
293.15 K, x1 = 0.7954 | 1.313
293.15 K, x1 = 0.8751 | 1.517
293.16 K, x1 = 0.383 | 0.845
293.57 K, x1 = 0.383 | 0.831
294.17 K, x1 = 0.383 | 0.812
295.09 K, x1 = 0.383 | 0.794
295.15 K, x1 = 0.149 | 0.471
295.15 K, x1 = 0.2214 | 0.517
295.15 K, x1 = 0.2746 | 0.562
295.15 K, x1 = 0.3291 | 0.611
295.15 K, x1 = 0.4214 | 0.72
295.15 K, x1 = 0.4477 | 0.759
295.15 K, x1 = 0.4729 | 0.79
295.15 K, x1 = 0.4886 | 0.808
295.15 K, x1 = 0.5628 | 0.896
295.15 K, x1 = 0.6392 | 0.984
295.15 K, x1 = 0.7954 | 1.274
295.15 K, x1 = 0.8751 | 1.475
296.42 K, x1 = 0.383 | 0.768
298.66 K, x1 = 0.383 | 0.736
299.15 K, x1 = 0.149 | 0.451
299.15 K, x1 = 0.2214 | 0.498
299.15 K, x1 = 0.2746 | 0.539
299.15 K, x1 = 0.3291 | 0.579
299.15 K, x1 = 0.4214 | 0.67
299.15 K, x1 = 0.4477 | 0.702
299.15 K, x1 = 0.4729 | 0.73
299.15 K, x1 = 0.4886 | 0.746
299.15 K, x1 = 0.5628 | 0.836
299.15 K, x1 = 0.6392 | 0.926
299.15 K, x1 = 0.7954 | 1.201
299.15 K, x1 = 0.8751 | 1.385
305.15 K, x1 = 0.149 | 0.423
305.15 K, x1 = 0.2214 | 0.463
305.15 K, x1 = 0.2746 | 0.503
305.15 K, x1 = 0.3291 | 0.536
305.15 K, x1 = 0.4214 | 0.615
305.15 K, x1 = 0.4477 | 0.643
305.15 K, x1 = 0.4729 | 0.678
305.15 K, x1 = 0.4886 | 0.681
305.15 K, x1 = 0.5628 | 0.764
305.15 K, x1 = 0.6392 | 0.85
305.15 K, x1 = 0.7954 | 1.104
305.15 K, x1 = 0.8751 | 1.26
313.15 K, x1 = 0.149 | 0.391
313.15 K, x1 = 0.2214 | 0.425
313.15 K, x1 = 0.2746 | 0.459
313.15 K, x1 = 0.3291 | 0.491
313.15 K, x1 = 0.4214 | 0.558
313.15 K, x1 = 0.4477 | 0.58
313.15 K, x1 = 0.4729 | 0.602
313.15 K, x1 = 0.4886 | 0.613
313.15 K, x1 = 0.5628 | 0.689
313.15 K, x1 = 0.6392 | 0.77
313.15 K, x1 = 0.7954 | 0.984
313.15 K, x1 = 0.8751 | 1.124
